Measured values: US20090324489A1 (priority 2005, published 2009)
Read-outs that look alike come from different tables or passages of the source.

How the values were obtained:
A549 cells = experiment: Anti-proliferative SRB assay, A549 cells; format: cell-based
Method: A549 cells were grown in RPMI-1640 supplemented with 10% FBS, 100 units/mL of penicillin, 100 μg/mL of streptomycin, and 2 mM L-glutamine. All cells were grown in a humidified atmosphere at 37° C. and 5% CO2. Growth inhibition was evaluated by the SRB assay^22. Cells were seeded in 96-well plates at 5000 cells per well in 100 μL of media and incubated at 37° C. for 24 hours. Cells were then treated with 0-100 μM of compounds at 37° C. for 48 hours. Cells were fixed with 50 μL cold 50% TCA, incubated at 4° C. for 1 hour, and washed 5 times with tap water. The 96-well plates were allowed to air dry and 100 μL 0.4% sulforhodamine B (SRB) in 1% acetic acid was added to each well. After 10 minutes, the unbound SRB was washed away with 1% acetic acid and the plates were dried. Protein-bound dye was solubilized by addition of 200 μL 10 mM Tris buffer and subsequent shaking at RT for 10 minutes. The absorbance of each well was measured at 490 nm by a plate reader. Percent cell survival was calculated for each concentration by the ratio of the measured absorbance to the absorbance of the untreated cells. Curve fitting was performed using Prism 4.0a software. IC50 is the 50% inhibition of cell mass without subtraction of the resistant cell population.

HeLa cells = experiment: Anti-proliferative assay, HeLa cells; format: cell-based
physchem = format: physicochemical; conditions: for half-life / half-life at 1.5 μM: buffer
Method: The stability of compounds of the invention was obtained by the following method. […] The solutions were incubated at 37° C.
Stability data was fit to equation 1, which illustrates our treatment of the data for 2a ([…]) as shown in FIG. 2 with first order decay constants (kFOD) given in Table 1.

[1] = Formation of wortmannin from WmC20 conjugates monitored by HPLC; conditions: PBS pH 6.8, 37° C.
Method: The solutions were incubated in water bath at 37° C. and were analyzed at different time points with HPLC by injecting the solution (10 μL) together with 1 μL internal standard solution (containing 1 μg methyl 4-hydroxybezoate). The initial time point (0 hr) was taken before putting the tube in the water bath. HPLC gradients were adjusted to produce baseline separations. Before the injection, the samples were vortexed briefly and then spun down. Data using this method appear in FIG. 6.
Compounds (1.8 mg) and 4b (1.3 mg) (examples were weighted into the 1.5 mL tubes and dissolved in PBS buffer (pH 6.8, 400 μL). The solutions were incubated at 37° C. At different time point 20 μL solution was mixed with 1 μL internal standard solution in DMSO (containing 1 μg methyl 4-hydroxybenzoate) and analyzed by HPLC. The initial time point (0 hr) was taken before putting the tube in the water bath. Before the injection, the samples were vortexed briefly and then spun down.
The following HPLC methods were employed. HPLC (Varian Prostar 210 with a variable wavelength PDA 330 detector) employed reverse phase C18 columns (VYDAC, Cat.#: 218TP 1022 for synthesis; Varian, Cat. #: R0086200C5 for analysis) with water (Millipore, containing 0.1% trifloroacetic acid,) (buffer A) and acetonitrile (containing 20% buffer A) (buffer B) as elution buffer. System 1: buffer A/buffer B (80:20) isocratic for 5 minutes, linear gradient to buffer A/buffer B (20:80) over 40 minutes, then the gradient back to 80:20 in 5 minutes and isocratic for 5 minutes, flow: 4.9 ml/min, λmax: 418 nm (used for purification of 2a); System 2: buffer A/buffer B (80:20) isocratic for 5 minutes, linear gradient to buffer A (buffer B (20:80) over 25 minutes and then isocratic for 5 minutes, then the gradient back to 80:20 in 5 minutes and isocratic for 5 minutes, flow: 6.0 mi/min, λmax: 408 nm (used for purification of 2b); System 3: buffer A/buffer B (70:30) linear gradient to buffer A/buffer B (20:80) over 15 minutes, then gradient back to 70:30 in 3 minutes and isocratic for another 5 minutes, flow: 1.0 ml/min, λmax: 258 nm (System 4: buffer A/buffer B (99:1) linear gradient to buffer A/buffer B (40:60) over 46 minutes, then gradient back to […] in 5 minutes and isocratic for another 5 minutes, flow: 1.0 ml/min, λmax: 250 nm).

PI3K = experiment: Inhibition of PI3K enzyme activity (32P ATP lipid phosphorylation, TLC); format: biochemical; conditions: compounds incubated 3 hours at 37° C. in PBS pH 6.8, then 30 minute PI3K incubation; read-out: Bioassay: PI3K IC50
Method: We incubated compounds for three hours at 37° C. in PBS, pH 6.8, followed a 30 minute incubation for PI3K activity using the assay system previously described which involves lipid phosphorylation by ^32P labeled ATP and thin layer chromatography, (see Yuan et al., Bioconjug. Chem. 16:669 (2005)).

[2] = cited from earlier work
[3] = Homo sapiens, A549, 48 hours treatment
[4] = RPM tissue culture medium, data from Holleran et al.

“WmC20-N(Me)-hexanoate-dextran [Example 17]” showed an IC50 (A549 cells; 48 hours treatment) of 3.96 ± 0.23 µM and an IC50 (HeLa cells) of 13.3 ± 0.4 µM.

COCC1OC(=O)C(=CNCCCCCC(=O)O)C2=C(O)C(=O)C3=C(C(OC(C)=O)CC4(C)C(=O)CCC34)C21C (centres unmarked) [Example 2, wortmannin C20-NH-hexanoic acid] gave an IC50 (A549 cells; [3]) of 45.8 ± 0.3 µM, a half-life (physchem; pH 6.8, Half Life) of 131 h and a half-life at 1.5 μM (physchem; pH 6.8, Half Life) of 223 h. The IC50 (HeLa cells; Homo sapiens, HeLa) was 63.8 ± 0.6 µM.

With WmC20-N(Me)-hexanoate-IgG [Example 14] the “K1 (wortmannin generation, fit to Equation 2)” value [1] was 0.024 (0.013-0.034) hr^−1, the “K2 (wortmannin degradation, fit to Equation 2)” value [1] was 0.282 (0.166-0.398) hr^−1 and the IC50 (PI3K) was 0.13 µM.

For COC[C@H]1OC(=O)c2coc3c2[C@@]1(C)C1=C(C3=O)[C@@H]2CCC(=O)[C@@]2(C)C[C@H]1OC(C)=O [wortmannin], the IC50 (A549 cells; [3]) is listed as 21.1 ± 0.5 µM, the KFOD ([2]; MEM tissue culture medium, data from Holleran et al.) is listed as 5.04 h⁻¹ and the “half-lives in RPM and MEM tissue culture media” value ([2]; RPM and MEM, Holleran et al.) is listed as “about 10 minutes”. The “Half Life” value [2, 4] was 0.172 h, the KFOD [2, 4] was 4.02 h⁻¹ and the “half-life in tissue culture media” value ([2]; tissue culture media, Holleran et al.) was 8 to 13 min. For the same compound, the “KFOD (95% confidence intervals)” value (physchem; PBS pH 6.8, 37° C.) was 0.012 (0.0080-0.016) hr^−1, the “KFOD (95% confidence intervals)” value (physchem; PBS, 0.065 mM BSA, 37° C.) was 0.18 (0.16-0.20) hr^−1 and the “KFOD (95% confidence intervals)” value (physchem; PBS, 10 mM NAcLys, 37° C.) was 0.30 (0.23-0.38) hr^−1. The “KFOD (95% confidence intervals)” value (physchem; PBS, 10 mM Proline, 37° C.) was 1.87 (0.62-3.13) hr^−1, the half-life (physchem; pH 6.8, Half Life) was 57.8 h and the half-life at 2.26 mM (physchem; pH 6.8, Half Life) was 3.85 h. The IC50 (HeLa cells; Homo sapiens, HeLa) was 41 ± 0.9 µM.

In the case of “WmC20-N(H)-hexanoate-dextran [Example 18]”, the IC50 (A549 cells; 48 hours treatment) is reported as 64.7 ± 1.2 µM and the IC50 (HeLa cells) is reported as 58 ± 0.6 µM.

In the case of WmC20-NH-hexanoate-IgG [Example 15], the IC50 (PI3K) is reported as > 1 µM.

In the case of WmC2O-N(Me)-hexanoate-Bead [Example 16], the “K1 (wortmannin generation, fit to Equation 2)” value [1] is reported as 0.308 (0.124-0.492) hr^−1 and the “K2 (wortmannin degradation, fit to Equation 2)” value [1] is reported as 0.148 (0.076-0.220) hr^−1.

In the case of COCC1OC(=O)C(=CN(C)CCCCCC(=O)O)C2=C(O)C(=O)C3=C(C(OC(C)=O)CC4(C)C(=O)CCC34)C21C (centres unmarked) [Example 1, wortmannin C20-N(Me)-hexanoic acid], the IC50 (A549 cells; [3]) is reported as 3.11 ± 0.17 µM, the half-life (physchem; pH 6.8, Half Life) is reported as 8.7 h and the half-life at 1.5 μM (physchem; pH 6.8, Half Life) is reported as 10.7 h. The IC50 (HeLa cells; Homo sapiens, HeLa) was 10.9 ± 0.2 µM.

For “WmC20-NH-hexanoate-BSA conjugate [Example 13]”, the IC50 (PI3K) was > 1 µM.

With “Wm-N(Me)Hexanoate-BSA conjugate [Example 12]” the “K1 (wortmannin generation, fit to Equation 2)” value [1] was 0.190 (0.128-0.253) hr^−1, the “K2 (wortmannin degradation, fit to Equation 2)” value [1] was 0.905 (0.707-1.103) hr^−1 and the IC50 (PI3K) was 0.0148 ± 0.0011 µM.
